Measurements as given in publication PMC9433317, “Discovery, structure and mechanism of a tetraether lipid synthase” (Nature, 2022).

Experiments:
GDGT–MAS (MJ0619; Tes) [1] = molecular target: T1, GDGT–MAS (MJ0619; Tes) (Methanocaldococcus jannaschii, UniProt Q58036); assay: X-ray crystal structures, […] Å and […] Å; format: binding; details: with 5'-dAH and bound lipids; bidentate to the unique iron of the radical SAM [Fe4S4] cluster
T1 sequence (Q58036 1-506): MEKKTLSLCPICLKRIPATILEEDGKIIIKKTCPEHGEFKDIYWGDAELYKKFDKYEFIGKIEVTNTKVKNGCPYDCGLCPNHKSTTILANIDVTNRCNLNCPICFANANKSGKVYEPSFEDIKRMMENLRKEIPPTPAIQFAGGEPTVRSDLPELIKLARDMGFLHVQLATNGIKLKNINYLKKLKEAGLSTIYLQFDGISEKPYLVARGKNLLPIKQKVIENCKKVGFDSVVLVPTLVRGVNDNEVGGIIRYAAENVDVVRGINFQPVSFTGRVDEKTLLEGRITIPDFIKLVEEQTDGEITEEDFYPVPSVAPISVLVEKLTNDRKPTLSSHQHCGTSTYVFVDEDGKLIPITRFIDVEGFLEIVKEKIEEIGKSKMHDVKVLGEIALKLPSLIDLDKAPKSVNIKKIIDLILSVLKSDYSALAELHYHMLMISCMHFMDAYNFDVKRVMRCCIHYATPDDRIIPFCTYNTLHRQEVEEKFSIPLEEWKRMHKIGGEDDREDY

GDGT–MAS (MJ0619; Tes) [2] = molecular target: T1, GDGT–MAS (MJ0619; Tes); assay: X-ray crystal structure, […] Å; format: binding; details: lipid-exchanged from M. acetivorans extract; with 5'-dAH and methionine; lipid identity assigned from electron density; second lipid site

With `CSCC[C@H](N)C(=O)O` [Met, methionine] as the molecule, how does the “X-ray crystal structures, 1.85 Å and 2.05 Å” value (GDGT–MAS (MJ0619; Tes) [1]) read?
Its value is “methionine coordinates to the unique iron in a bidentate manner”.

For `CC(C)CCC[C@@H](C)CCC[C@@H](C)CCC[C@@H](C)CCOC[C@@H](COP(=O)(O)O)OCC[C@H](C)CCC[C@H](C)CCC[C@H](C)CCCC(C)C` [L1P, 2,3-di-O-phytanyl-sn-glycero-1-phosphate], which “X-ray crystal structure, 2.05 Å” value (GDGT–MAS (MJ0619; Tes) [2]) is on record?
The value was “Unmodelled electron density in the active site was assigned as two archaeal lipid molecules”.
